The values below come from patent publication US9708302B2, “Flouro-naphthyl derivatives” (Hoffmann-La Roche Inc., priority 2014, dated 2017).

One assay deals with hM1 (Homo sapiens (Human), UniProt P11229). In words: M1 PAM Assay (FLIPR intracellular calcium, CHO human M1 cells). Conditions: positive allosteric modulation in presence of EC20 of acetylcholine, first value of cell. Type of assay: cell-based. How it is done:
(§1) The assay study the effect of several concentrations of test compounds on basal or acetylcholine-stimulated Ca^2+ levels using FLIPR.
(§2) CHO human M1 are plated the day before the experiments at 2×10^5 cells/ml in PDL BioCoat 96 well black/clear plate (Becton 35 4640). The cells are grown at 37° C. and 5% CO2 in the following medium: F12 Nut Mix (Gibco 21765), 10% FCS heat inactivated (GIBCO 16000-044), 1% Pen Strep (Gibco, 15140) and 200 μg/ml Geneticin (Gibco 11811). On the day of the experiment, the medium was removed and replaced by 100 μl of dye loading buffer containing Hanks Balanced Salt solution (HBSS, 14065-049, Gibco) with 20 mM HEPES (Gibco 15630-056), 2 mM Probenicid (Sigma P8761), […] (Molecular Probes F-14202), 10% Pluronic acid Molecular Probes P-3000) pH=7.4 and incubated at 37° C. After 60 minutes extracellular dye was removed and the cells were washed five times with FLIPR buffer containing HBSS (Gibco 14065-049) with 20 mM HEPES (Gibco, 15630-056), 2 mM Probenicid (Sigma P8761) pre-warmed at 37° C. using and Ebml cell washer leaving 100 μl of FLIPR buffer in each well. The cell plate and the diluted compounds (1% DMSO final concentration) are placed on the platform of the FLIPR and the door closed. A signal test to check background fluorescence and basal fluorescence signal is performed. Laser intensity is adjusted if necessary. Two minutes preincubation with the diluted test compounds is provide to determine any agonist activity on the M1 receptor by comparison to 30 nM Acetylcholine control. In order to determine any modulator activity the diluted compounds were added to cells and after two minutes preincubation, the EC20 of acetylcholine is added followed by another two minutes preincubation before the measurement of intracellular Ca^2+ with a FLIPR (Molecular Devices).
For orientation: Calcium flux is commonly read through the fluorescence of an indicator in the cells.

The target in a further assay is rat M1 (Rattus norvegicus (Rat), UniProt P08482). The experiment in a line: M1 PAM Assay (FLIPR intracellular calcium), rat M1. Particulars: positive allosteric modulation in presence of EC20 of acetylcholine; second value of cell. Type of assay: cell-based. Here is the method:
[The procedure below names another species; the source lists this species under the same test.] as §1, §2

Sequence of hM1 (P11229 whole entry): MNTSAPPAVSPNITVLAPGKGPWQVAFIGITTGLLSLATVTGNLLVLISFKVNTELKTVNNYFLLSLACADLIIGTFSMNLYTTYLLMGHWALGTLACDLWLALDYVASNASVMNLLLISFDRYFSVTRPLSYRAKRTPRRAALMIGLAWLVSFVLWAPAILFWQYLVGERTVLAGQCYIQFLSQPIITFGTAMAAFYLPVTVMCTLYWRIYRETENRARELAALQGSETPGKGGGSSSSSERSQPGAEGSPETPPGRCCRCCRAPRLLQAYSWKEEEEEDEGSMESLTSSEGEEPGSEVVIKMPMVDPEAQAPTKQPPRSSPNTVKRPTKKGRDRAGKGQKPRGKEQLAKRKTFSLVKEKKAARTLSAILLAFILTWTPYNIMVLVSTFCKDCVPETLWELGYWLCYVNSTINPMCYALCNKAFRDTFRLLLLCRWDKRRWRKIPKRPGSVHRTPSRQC
Sequence of rat M1 (P08482 whole entry): as the sequence (P11229 whole entry) above, with A5V, T254S, P309S, R320K, A337G, I413V counted along it

For `Cn1cc(-c2ccc(Cc3cc(C(=O)N[C@H]4CCOC[C@@H]4O)c(F)c4ccccc34)cn2)cn1` [Example 20, 1-fluoro-N-[(3R,4S)-3-hydroxytetrahydropyran-4-yl]-4-[[6-(1-methylpyrazol-4-yl)-3-pyridyl]methyl]naphthalene-2-carboxamide], the concentration giving a half-maximal response (EC50) on hM1 and at rat M1 was 2 nM throughout.

In the case of `O=C(N[C@H]1CCOC[C@@H]1O)c1cc(Cc2ccc(OC(F)(F)F)cc2)c2ccccc2c1F` (racemic) [Example 15, 1-fluoro-N-((3RS,4SR)-3-hydroxytetrahydro-2H-pyran-4-yl)-4-(4-(trifluoromethoxy)benzyl)-2-naphthamide], on hM1, the EC50 – broadly, the midpoint of the concentration-response curve – worked out at 541 nM.

With `Cn1cc(-c2ccc(Cc3cc(C(=O)N[C@H]4CCOC[C@@H]4O)c(F)c4ccccc34)cn2)cn1` (racemic) [Example 18, 1-fluoro-N-((3RS,4SR)-3-hydroxytetrahydro-2H-pyran-4-yl)-4-((6-(1-methyl-1H-pyrazol-4-yl)pyridin-3-yl)methyl)-2-naphthamide], the concentration giving a half-maximal response (EC50) turned out to be 3 nM on hM1 and 6 nM on rat M1.

On to `O=C(N[C@H]1CCC[C@@H]1O)c1cc(Cc2ccc(Cl)nc2)c2ccccc2c1F` [Example 5, 4-((6-chloropyridin-3-yl)methyl)-1-fluoro-N-((1S,2S)-2-hydroxycyclopentyl)-2-naphthamide], for which the EC50 is 363 nM at hM1 and 968 nM at rat M1.

Take `C[C@@]1(O)CCCC[C@@H]1NC(=O)c1cc(Cc2ccc(Cl)nc2)c2ccccc2c1F` (racemic) [Example 8, 4-((6-chloropyridin-3-yl)methyl)-1-fluoro-N-((1SR,2RS)-2-hydroxy-2-methylcyclohexyl)-2-naphthamide]: at hM1, the EC50 came to 524 nM.

Turning to `N#CC1(c2ccccn2)CCN(Cc2cc(C(=O)N[C@H]3CCCC[C@@H]3O)c(F)c3ccccc23)CC1` [Example 26, 4-((4-Cyano-4-(pyridin-2-yl)piperidin-1-yl)methyl)-1-fluoro-N-((1S,2S)-2-hydroxycyclohexyl)-2-naphthamide], the concentration for a half-maximal effect (EC50) at hM1 amounted to 258 nM; on rat M1 it was 345 nM.

As for `Cn1cc(-c2ccc(Cc3cc(C(=O)N[C@H]4CCOC[C@@H]4O)c(F)c4ccccc34)c(F)c2)cn1` (racemic) [Example 14, 1-fluoro-4-(2-fluoro-4-(1-methyl-1H-pyrazol-4-yl)benzyl)-N-((3RS,4SR)-3-hydroxytetrahydro-2H-pyran-4-yl)-2-naphthamide], the EC50 on hM1 and at rat M1 was 14 nM in each case.

For `O=C(N[C@H]1COCC[C@@H]1O)c1cc(Cc2ccc(Cl)nc2)c2ccccc2c1F` [Example 4, 4-((6-Chloropyridin-3-yl)methyl)-1-fluoro-N-((3S,4S)-4-hydroxytetrahydro-2H-pyran-3-yl)-2-naphthamide], the EC50 at hM1 worked out at 428 nM.

With `O=C(N[C@H]1CCOC[C@@H]1O)c1cc(Cc2ccc(Cl)nc2)c2ccccc2c1F` (racemic) [Example 2, 4-((6-chloropyridin-3-yl)methyl)-1-fluoro-N-((3RS,4SR)-3-hydroxytetrahydro-2H-pyran-4-yl)-2-naphthamide], the concentration for a half-maximal effect (EC50) at hM1 stood at 53 nM; at rat M1, 118 nM.

As to `Cn1cc(-c2ccc(Cc3cc(C(=O)N[C@H]4CCCC[C@@H]4O)c(F)c4ccccc34)cn2)cn1` (racemic) [Example 17, 1-Fluoro-N-((1S,2S)-2-hydroxycyclohexyl)-4-((6-(1-methyl-1H-pyrazol-4-yl)pyridin-3-yl)methyl)-2-naphthamide], the concentration giving a half-maximal response (EC50) was determined as 10 nM at hM1 and 14 nM at rat M1.

For `O=C(N[C@H]1CCCC[C@H]1O)c1cc(Cc2ccc(Cl)nc2)c2ccccc2c1F` (racemic) [Example 9, 4-((6-chloropyridin-3-yl)methyl)-1-fluoro-N-((1SR,2RS)-2-hydroxycyclohexyl)-2-naphthamide], the 50% effective concentration (EC50) on hM1 stood at 539 nM.

On to `Cn1cc(-c2ccc(Cc3cc(C(=O)N[C@@H]4CCOC[C@H]4O)c(F)c4ccccc34)cn2)cn1` [Example 19, 1-fluoro-N-[(3S,4R)-3-hydroxytetrahydropyran-4-yl]-4-[[6-(1-methylpyrazol-4-yl)-3-pyridyl]methyl]naphthalene-2-carboxamide], for which the EC50 was determined as 65 nM on hM1 and 97 nM at rat M1.

As to `O=C(N[C@H]1CCCC[C@@H]1O)c1cc(Cc2ccc(C3CC3)nc2)c2ccccc2c1F` [Example 24, 4-((6-Cyclopropylpyridin-3-yl)methyl)-1-fluoro-N-((1S,2S)-2-hydroxycyclohexyl)-2-naphthamide], the 50% effective concentration (EC50) at hM1 is 230 nM; on rat M1, 347 nM.

For `O=C(N[C@@H]1CCOC[C@H]1O)c1cc(Cc2ccc(Cl)nc2)c2ccccc2c1F` (stereo in doubt) [Example 25, 4-[(6-chloropyridin-3-yl)methyl]-1-fluoro-N-[(3S,4R)-3-hydroxyoxan-4-yl]naphthalene-2-carboxamide], the figures for the EC50 at hM1 and on rat M1 were 27 nM and 52 nM, respectively.

Take `Cc1ccc(Cc2cc(C(=O)N[C@H]3CCOC[C@@H]3O)c(F)c3ccccc23)cc1` (racemic) [Example 10, 1-Fluoro-N-((3RS,4SR)-3-hydroxytetrahydro-2H-pyran-4-yl)-4-(4-methylbenzyl)-2-naphthamide]: the EC50 at hM1 came out at 154 nM; on rat M1, 221 nM.

As to `O=C(N[C@H]1CCC[C@H]1O)c1cc(Cc2ccc(Cl)nc2)c2ccccc2c1F` [Example 6, 4-((6-chloropydridin-3-yl)methyl)-1-fluoro-N-((1S,2R)-2-hydroxycyclopentyl)-2-naphthamide], the 50% effective concentration (EC50) at hM1 amounted to 575 nM.

In the case of `Cc1ccc(Cc2cc(C(=O)N[C@H]3CCCC[C@@H]3O)c(F)c3ccccc23)cn1` (racemic) [Example 23, 1-Fluoro-N-((1SR,2SR)-2-hydroxycyclohexyl)-4-((6-methylpyridin-3-yl)methyl)-2-naphthamide], the 50% effective concentration (EC50) on hM1 is 213 nM; on rat M1, 490 nM.

Regarding `N#Cc1ccc(Cc2cc(C(=O)N[C@H]3CCOC[C@@H]3O)c(F)c3ccccc23)cc1` (racemic) [Example 13, 4-(4-cyanobenzyl)-1-fluoro-N-((3RS,4SR)-3-hydroxytetrahydro-2H-pyran-4-yl)-2-naphthamide], the concentration giving a half-maximal response (EC50) was determined as 67 nM on hM1 and 71 nM on rat M1.

As to `O=C(N[C@H]1CCCC[C@@H]1O)c1cc(Cc2ccc(Cl)nc2)c2ccccc2c1F` [Example 3, 4-((6-chloropydridin-3-yl)methyl)-1-fluoro-N-((1S,2S)-2-hydroxycyclohexyl)-2-naphthamide], the EC50 at hM1 amounted to 84 nM; at rat M1, 101 nM.

Turning to `Cn1cc(-c2ccc(Cc3cc(C(=O)N[C@H]4CCOC[C@@H]4O)c(F)c4ccccc34)cc2)cn1` (racemic) [Example 16, 1-fluoro-N-((3RS,4SR)-3-hydroxytetrahydro-2H-pyran-4-yl)-4-(4-(1-methyl-1H-pyrazol-4-yl)benzyl)-2-naphthamide], the figures for the EC50 on hM1 and at rat M1 were 11 nM and 20 nM, respectively.

In the case of `O=C(N[C@H]1CCCC[C@@H]1O)c1cc(Cc2ccc(Cl)nc2)c2ccccc2c1F` (racemic) [Example 1, 4-((6-Chloropyridin-3-yl)methyl)-1-fluoro-N-((1SR,2SR)-2-hydroxycyclohexyl)-2-naphthamide], the EC50 came to 159 nM at hM1 and 137 nM at rat M1.

`Cn1cc(-c2ccc(Cc3cc(C(=O)N[C@H]4CCCC[C@@]4(C)O)c(F)c4ccccc34)cn2)cn1` (racemic) [Example 22, 1-fluoro-N-((1SR,2RS)-2-hydroxy-2-methylcyclohexyl)-4-((6-(1-methyl-1H-pyrazol-4-yl)pyridin-3-yl)methyl)-2-naphthamide]: the concentration for a half-maximal effect (EC50) is 20 nM on hM1 and 41 nM at rat M1.

On to `O=C(N[C@H]1CCOC[C@@H]1O)c1cc(Cc2ccccc2)c2ccccc2c1F` (racemic) [Example 11, 4-benzyl-1-fluoro-N-((3RS,4SR)-3-hydroxytetrahydro-2H-pyran-4-yl)-2-naphthamide], for which the EC50 on hM1 turned out to be 197 nM; on rat M1 it was 356 nM.

Turning to `O=C(N[C@H]1CCOC[C@@H]1O)c1cc(Cc2ccc(Cl)cc2)c2ccccc2c1F` (racemic) [Example 12, 4-(4-chlorobenzyl)-1-fluoro-N-((3RS,4SR)-3-hydroxytetrahydro-2H-pyran-4-yl)-2-naphthamide], the half-maximal effective concentration (EC50) at hM1 worked out at 152 nM; on rat M1 it was 273 nM.

Take `Cn1cc(-c2ccc(Cc3cc(C(=O)N[C@H]4COCC[C@@H]4O)c(F)c4ccccc34)cn2)cn1` [Example 21, 1-fluoro-N-((3S,4S)-4-hydroxytetrahydro-2H-pyran-3-yl)-4-((6-(1-methyl-1H-pyrazol-4-yl)pyridin-3-yl)methyl)-2-naphthamide]: the EC50 at hM1 was 33 nM; on rat M1, 48 nM.

On to `C[C@]1(O)CCCC[C@@H]1NC(=O)c1cc(Cc2ccc(Cl)nc2)c2ccccc2c1F` (racemic) [Example 7, 4-((6-chloropyridin-3-yl)methyl)-1-fluoro-N-((1SR,2SR)-2-hydroxy-2-methylcyclohexyl)-2-naphthamide], for which, on hM1, the EC50 stood at 561 nM.
